# From patent publication US8017162B2, “Anti-inflammatory agent” (Oryza Oil & Fat Chemical Co., Ltd., priority 2005, dated 2011)
# Values joined by “and” are separate entries in the source; they are usually repeats but may differ in a detail not shown here. Equal values may be shown once. “Also recorded” adds a separate entry of the source.
# Experiments:
# adjuvant arthritis [1] = assay: Preventive effect on adjuvant arthritis: edema volume of the tarsus (footpad volume); assay type: in vivo, rats
# From the text: Firstly, subcutaneously administer the adjuvant to the right tarsus of the rats under the following condition so that the arthritis is caused in the mice. On the second day that the arthritis is induced, orally administer the red ginger extract to the rats for four consecutive weeks by the following method, and regularly observe the tarsus edema of the rats and the anti-inflammatory effect of the test substance. Weigh at once the two-day doses of the red ginger extract as the test substance described in Example 1, and use the red ginger extract suspended with the 0.5% CMC-Na. At this time, prepare the high-dose test substance (10 mg/5 mL/kg). Then, […] the liquid to prepare the low-dose test substance (1 mg/5 mL/kg). Weigh the necessary amount of Indomethacin (Lot No. 122K0718, Sigma-Aldrich, Inc.) which is commercially available. Then prepare freshly the positive control substance with the injection solvent until it becomes 0.5 mg/5 mL/kg. Then, dispose of it after all the administrations have been completed. 2. Firstly, obtain 28 mice (7-week-old, SD (CrjBgi:CD) IGS mice, male SPF) from ORIENT CO., LTD. Then, quarantine and naturalize the mice for more than 7 days. After observing the mice during the period of naturalization and quarantine, use the mice that are alive and which have no problems in the weight and general status. When the mice were grouped, the weight ranged from 279.3 to 328.7 g. When the inflammation was induced, the weight ranged from 283.7 to 333.9 g. When the autopsy was conducted, the weight ranged from 293.4 g to 440.8 g. 3. Administration The test substance was forcibly administered to the mice through a stomach sonde or syringe once a day for a period of 28 days after the inflammation was induced. As shown in the chart below, there are 4 groups, and each group has seven examples (i.e. 7 mice). The test substance was orally administered to each mouse for 28 days from the day after the inflammation was induced. During the period when the test substance was administered, the edema of the right tarsus of each mouse was X-rayed twice a week. From the day after the test was completed, the right and left tarsuses of each mouse were X-rayed twice a week, and the effect of the test substance on the bone was verified. The solution (1.0 mg/0.1 mL) was made from 1 mL of FREUND'S INCOMPLETE ADJUTANT (FIA) and 10 mg of killed bacteria (fungus body)—MYCOBACTERIUM BUTYRICUM (Lot Ni. 5129117, Difco). The FIA and the killed bacteria were sufficiently suspended, and then approx. […] of the solution was administered to the subcutaneous of the footpads of the right, hind leg of each mouse. To verify the degree and the increase of the edema volume before and after the adjuvant was induced, the footpad volume of the right hind leg was measured by using Digital Pletysmometer, LE7500 (Panlab SL, Spain) twice each time immediately before the adjuvant was induced, and again on Days 3, 6, 10, 13, 17, 20, 24 and 27 after the adjuvant was induced. Each measured value was determined by Dunnet's Test using the Graphad Instat Program (Ver. 4.5, USA), and the significant difference test was conducted.
# adjuvant arthritis [2] = assay: Adjuvant arthritis: X-ray determination of tarsus and interphalangeal articulation (radiographic index); assay type: in vivo, rats; settings: 0.5 mg/kg
# From the text: Firstly, subcutaneously administer the adjuvant to the right tarsus of the rats under the following condition so that the arthritis is caused in the mice. On the second day that the arthritis is induced, orally administer the red ginger extract to the rats for four consecutive weeks by the following method, and regularly observe the tarsus edema of the rats and the anti-inflammatory effect of the test substance. 2. Firstly, obtain 28 mice (7-week-old, SD (CrjBgi:CD) IGS mice, male SPF) from ORIENT CO., LTD. Then, quarantine and naturalize the mice for more than 7 days. After observing the mice during the period of naturalization and quarantine, use the mice that are alive and which have no problems in the weight and general status. When the mice were grouped, the weight ranged from 279.3 to 328.7 g. When the inflammation was induced, the weight ranged from 283.7 to 333.9 g. When the autopsy was conducted, the weight ranged from 293.4 g to 440.8 g. 3. Administration The test substance was forcibly administered to the mice through a stomach sonde or syringe once a day for a period of 28 days after the inflammation was induced. As shown in the chart below, there are 4 groups, and each group has seven examples (i.e. 7 mice). The test substance was orally administered to each mouse for 28 days from the day after the inflammation was induced. During the period when the test substance was administered, the edema of the right tarsus of each mouse was X-rayed twice a week. From the day after the test was completed, the right and left tarsuses of each mouse were X-rayed twice a week, and the effect of the test substance on the bone was verified. The solution (1.0 mg/0.1 mL) was made from 1 mL of FREUND'S INCOMPLETE ADJUTANT (FIA) and 10 mg of killed bacteria (fungus body)—MYCOBACTERIUM BUTYRICUM (Lot Ni. 5129117, Difco). The FIA and the killed bacteria were sufficiently suspended, and then approx. […] of the solution was administered to the subcutaneous of the footpads of the right, hind leg of each mouse. On the 27th day after the administration was begun, the edema was taken out. The hind leg was affixed with the neutral buffered formalin fixative (10%), and the image of the tarsus articulation area, including the interphalangeal articulation, was taken by a soft X-ray. The tarsus articulation and the interphalangeal articulation were verified by the degrees between −(normal status) and 5+(most serious status). A radiographic index was obtained by the method as shown in Chart 2, below. Add up the figures to determine the severity of the articular destruction. [table]
# NO production = settings: concentration of 21.5 to 215 microgram/mL (FIG. 9); cited from earlier work
# RAW264.7 cells [3] = assay: PGE2 produced by LPS stimulation in RAW264.7 cells; assay type: cell-based, mouse; settings: 0.1 microgram/mL, single substance, P<0.01 vs LPS group
# Description: Suspend mouse-derived macrophage-like cells RAW264.7 in the culture medium “Minimum Essential Medium (MEM)” containing a 0.1 mM nonessential amino acid mixture, 10% fetal calf serum (FCS), penicillin (100 units/mL), and streptomycin (100 microgram/mL) in concentration of 1×10^6 cells/mL. Then, the cells were seeded into 48-well plate (200 microliter/well).
# In 48 to 72 hours after the cultivation, vacuum the culture medium. Then clean the culture medium thrice with the serum-free culture medium (which contains no FCS). Then, add the serum-free culture medium (170 microliter) to each well.
# After that, add the LPS solution (10 microlitre) which was prepared to 200 microgram/mL in the serum-free culture medium, to each well (final concentration 10 microgram/mL). Then, add the serum-free culture medium (10 microliter) to the well of the control group. Add 20 microliter each of the red ginger extract sample solution which was prepared to be the concentrations of […] in the serum-free culture medium, and add indomethacin in concentration of 8.9 microgram/mL (equivalent to 25 microM) to three wells, each. (The final concentrations of the red ginger extract are to be 0.1, 0.3, 1, 3, and 10 microgram/mL, and the final concentration of indomethacin is to be 0.89microgram/mL which is equivalent to 2.5 microM). […]
# RAW264.7 cells [4] = assay: NO production inhibition test (LPS, Griess Method); assay type: cell-based, mouse
# Description: A 200 microliter each of the continuously-cultivated RAW264.7 cells (10^6 cells/mL) should be seeded into 48-well plate. After 24 hours, replace the culture medium with a serum-free culture medium. Then, add the LPS (final concentration: 10 microgram/mL) and samples (Examples 1 & 2), and then cultivate for 24 hours. Collect the supernatant (100 microliter) and determine the amount of NO by the Griess Method.
# [5] = right leg, individual animals, listed as Indomet hacin
# [6] = right leg, individual animals, listed as indomethacin
smiles,measurement,setting,value
COc1ccc2c(c1)c(CC(=O)O)c(C)n2C(=O)c1ccc(Cl)cc1 [Indomethacin],"Edema volume of the tarsus, right tarsus","adjuvant arthritis [1]; 0.5 mg/kg oral once a day, Day 0 (before induction)",1.81 ± 0.07 mL
same,"Edema volume of the tarsus, right tarsus","adjuvant arthritis [1]; 0.5 mg/kg, Day 3",3.35 ± 0.18 mL
same,"Edema volume of the tarsus, right tarsus","adjuvant arthritis [1]; 0.5 mg/kg, Day 3, listed as indomethacin",3.35 mL
same,"Edema volume of the tarsus, right tarsus","adjuvant arthritis [1]; 0.5 mg/kg, Day 6",3.69 ± 0.40 mL
same,"Edema volume of the tarsus, right tarsus","adjuvant arthritis [1]; 0.5 mg/kg, Day 10",3.69 ± 0.36 mL
same,"Edema volume of the tarsus, right tarsus","adjuvant arthritis [1]; 0.5 mg/kg, Day 13",3.40 ± 0.43 mL
same,"Edema volume of the tarsus, right tarsus","adjuvant arthritis [1]; 0.5 mg/kg, Day 17",3.11 ± 0.59 mL
same,"Edema volume of the tarsus, right tarsus","adjuvant arthritis [1]; 0.5 mg/kg, Day 20",3.18 ± 0.52 mL
same,"Edema volume of the tarsus, right tarsus","adjuvant arthritis [1]; 0.5 mg/kg, Day 24",3.19 ± 0.51 mL
same,"Edema volume of the tarsus, right tarsus","adjuvant arthritis [1]; 0.5 mg/kg, Day 24, listed as indomethacin",3.19 mL
same,"Edema volume of the tarsus, right tarsus","adjuvant arthritis [1]; 0.5 mg/kg, Day 27",2.89 ± 0.34 mL
same,Degree of disorder compared to the vehicle group,adjuvant arthritis [2],remarkably suppressed
same,Result (X-ray determination),"adjuvant arthritis [2]; right leg, individual animals",2+ (Moderate(−): 2+; 2points)
same,Interphal angeal articulation: Bone destruction,adjuvant arthritis [2]; [5],− (Normal: −; 0 point); also recorded: + (Mild: +; 1 point)
same,Interphal angeal articulation: Periostitis,adjuvant arthritis [2]; [5],+ (Mild: +; 1 point); also recorded: − (Normal: −; 0 point)
same,Interphal angeal articulation: Total,adjuvant arthritis [2]; [5],1 points (5×) and 0 points and 2 points
same,Tarsus articulation: Bone destruction,adjuvant arthritis [2]; [5],− (Normal: −; 0 point); also recorded: + (Mild: +; 1 point)
same,Tarsus articulation: Periostitis,adjuvant arthritis [2]; [5],2+ (Moderate(−): 2+; 2points) (6×) and 3+ (Moderate(+): 3+; 3 ponts)
same,Tarsus articulation: Total,adjuvant arthritis [2]; [5],2 points (2×) and 3 points (4×) and 4 points
same,Interphal angeal articulation: Bone destruction,adjuvant arthritis [2]; [6],+ (Mild: +; 1 point)
same,Interphal angeal articulation: Periostitis,adjuvant arthritis [2]; [6],+ (Mild: +; 1 point)
same,Tarsus articulation: Bone destruction,adjuvant arthritis [2]; [6],+ (Mild: +; 1 point)
Cl.N[C@H]1C(O)O[C@H](CO)[C@@H](O)[C@@H]1O (stereo partly shown) [glucosamine hydrochloride],Inhibitory effect on NO production,NO production,has the inhibitory effect on NO production
"CCCCC[C@H](O)CC(=O)CCc1ccc(O)c(OC)c1 [Example 6-gingerol, 6-gingerol]",Inhibition ratio of PGE2 production,RAW264.7 cells [3],37.8%
same,NO in supernatant,"RAW264.7 cells [4]; 1 μg/mL, LPS 10 microgram/mL, 24 hours, average ± SD",3.50 ± 0.26 µM
same,NO in supernatant,RAW264.7 cells [4]; 3 μg/mL,3.66 ± 0.33 µM
same,NO in supernatant,RAW264.7 cells [4]; 10 μg/mL,3.27 ± 0.26 µM
same,Inhibition ratio (NO production),RAW264.7 cells [4]; 30 μg/mL,(4.3) %
same,NO in supernatant,RAW264.7 cells [4]; 30 μg/mL,3.11 ± 0.22 µM
same,Inhibition ratio (NO production),RAW264.7 cells [4]; 100 μg/mL,(17.6) %
same,NO in supernatant,RAW264.7 cells [4]; 100 μg/mL,2.81 ± 0.47 µM
